The numbers were not newly measured in patent US12403129B2, “Isotope-enriched 3-amino-1-propanesulfonic acid derivatives for the treatment of cerebrovascular disease” (RISEN (SUZHOU) PHARMA TECH CO., LTD., priority 2021, dated 2025), which cites them from elsewhere.

The target in series [1] is interaction between PSD95 and nNOS (Homo sapiens, UniProt P29475+P78352). The conditions noted are these: by blocking the interaction between PSD95 and nNOS; cited from earlier work.
For series [2] the following is noted: produces three potential metabolites; major metabolite 2-carboxyethanesulfonic acid; cited from earlier work.
For series [3] the following is noted: cited from earlier work.
Where [4] appears, read: 2-h time point, oral, 0.72 mmol/kg.

SMILES strings stand for the structures. Entries after “also recorded” stand apart in the source; their conditions may differ.

Chain of interaction between PSD95 and nNOS (P78352 whole entry): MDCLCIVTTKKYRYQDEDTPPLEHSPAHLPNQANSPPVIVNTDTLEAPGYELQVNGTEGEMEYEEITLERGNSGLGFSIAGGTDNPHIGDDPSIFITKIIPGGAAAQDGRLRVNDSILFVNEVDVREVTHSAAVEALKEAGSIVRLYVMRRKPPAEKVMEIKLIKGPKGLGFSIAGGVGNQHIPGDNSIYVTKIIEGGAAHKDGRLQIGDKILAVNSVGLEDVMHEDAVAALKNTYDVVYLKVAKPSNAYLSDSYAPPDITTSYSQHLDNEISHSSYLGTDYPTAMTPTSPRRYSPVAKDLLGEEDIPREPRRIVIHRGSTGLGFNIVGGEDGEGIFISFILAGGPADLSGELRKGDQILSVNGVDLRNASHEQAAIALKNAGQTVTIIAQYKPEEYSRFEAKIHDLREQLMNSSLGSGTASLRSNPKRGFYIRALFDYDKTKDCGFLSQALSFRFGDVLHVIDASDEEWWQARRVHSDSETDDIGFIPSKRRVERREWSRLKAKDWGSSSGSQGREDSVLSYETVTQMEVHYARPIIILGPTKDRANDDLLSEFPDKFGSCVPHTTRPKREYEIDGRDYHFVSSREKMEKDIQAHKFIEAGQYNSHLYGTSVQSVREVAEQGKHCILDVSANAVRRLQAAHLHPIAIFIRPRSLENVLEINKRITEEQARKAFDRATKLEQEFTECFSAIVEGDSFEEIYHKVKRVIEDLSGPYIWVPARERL
Chain of interaction between PSD95 and nNOS (P29475 whole entry): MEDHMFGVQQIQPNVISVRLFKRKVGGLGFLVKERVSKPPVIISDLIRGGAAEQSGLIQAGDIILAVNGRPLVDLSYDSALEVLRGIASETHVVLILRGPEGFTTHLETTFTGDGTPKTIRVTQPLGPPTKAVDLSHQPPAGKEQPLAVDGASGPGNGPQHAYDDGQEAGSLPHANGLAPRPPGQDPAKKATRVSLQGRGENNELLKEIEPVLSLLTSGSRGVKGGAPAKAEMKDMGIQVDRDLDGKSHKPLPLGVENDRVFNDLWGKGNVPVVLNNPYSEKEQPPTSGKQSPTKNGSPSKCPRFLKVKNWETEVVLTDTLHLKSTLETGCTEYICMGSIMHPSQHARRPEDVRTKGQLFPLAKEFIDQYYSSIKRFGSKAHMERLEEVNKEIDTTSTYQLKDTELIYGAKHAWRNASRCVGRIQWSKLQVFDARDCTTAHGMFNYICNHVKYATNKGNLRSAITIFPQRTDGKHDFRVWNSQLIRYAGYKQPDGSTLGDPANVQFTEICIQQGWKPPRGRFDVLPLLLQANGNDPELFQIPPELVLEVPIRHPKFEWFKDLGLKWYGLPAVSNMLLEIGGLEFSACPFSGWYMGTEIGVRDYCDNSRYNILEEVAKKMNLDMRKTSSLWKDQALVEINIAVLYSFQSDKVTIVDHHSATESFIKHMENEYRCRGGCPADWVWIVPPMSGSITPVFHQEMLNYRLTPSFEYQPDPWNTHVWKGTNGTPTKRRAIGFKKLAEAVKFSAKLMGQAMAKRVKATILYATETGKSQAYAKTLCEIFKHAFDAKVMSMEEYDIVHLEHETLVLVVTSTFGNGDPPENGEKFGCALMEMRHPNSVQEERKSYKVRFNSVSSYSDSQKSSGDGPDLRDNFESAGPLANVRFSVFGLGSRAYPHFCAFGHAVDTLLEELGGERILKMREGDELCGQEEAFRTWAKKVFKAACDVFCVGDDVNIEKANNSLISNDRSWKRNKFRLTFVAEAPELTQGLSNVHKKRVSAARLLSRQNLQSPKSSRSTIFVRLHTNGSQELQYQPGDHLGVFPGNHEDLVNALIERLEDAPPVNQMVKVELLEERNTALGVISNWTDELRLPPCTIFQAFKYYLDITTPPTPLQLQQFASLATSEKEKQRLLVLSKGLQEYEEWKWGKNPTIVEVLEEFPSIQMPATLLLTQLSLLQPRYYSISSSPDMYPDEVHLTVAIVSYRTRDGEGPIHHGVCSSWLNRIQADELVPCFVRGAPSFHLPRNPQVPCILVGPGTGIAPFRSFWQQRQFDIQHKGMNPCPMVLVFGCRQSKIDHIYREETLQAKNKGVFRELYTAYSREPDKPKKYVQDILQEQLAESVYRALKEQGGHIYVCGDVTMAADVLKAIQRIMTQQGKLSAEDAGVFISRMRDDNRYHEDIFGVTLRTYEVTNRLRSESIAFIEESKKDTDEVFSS

On to `NCCCS(=O)(=O)O` [Tramiprosate, 3-amino-1-propanesulfonic acid], for which, in series [1], the “protection of neurons from ischemic stroke” value was “can protect neurons from ischemic stroke”. The metabolism in vivo result in series [2] is on record as “extensively metabolized”.

As for `[2H]C([2H])(N)CCS(=O)(=O)O` [compound 1, 3-amino-3,3-dideuterium-1-propanesulfonic Acid], in series [3] (setting [4]), the “concentration of metabolite (2-carboxy-1-ethanesulfonic acid) in plasma compared to 3APS (of natural abundance)” value was “much lower” and the “plasma drug concentration compared to 3APS (of natural abundance)” value is listed as “higher”. Further, in series [3] (mole-equivalent oral dose (0.72 mmol/kg), mouse plasma), the “plasma drug exposure compared to 3APS (of natural abundance)” value was “improved plasma drug exposure significantly”. Also, the “drug metabolism / metabolic profile compared to 3APS” value in series [3] (mole-equivalent oral dose, mouse) is reported as “delayed drug metabolism; also recorded: delayed metabolic profile”.
